In data set [1] the test system is oral squamous cell carcinoma cell line OECM-1. Briefly: MTT assay cytotoxicity, OECM-1. The following applies: 24 hr treatment, read-out: anticancer activity oral squamous cell carcinoma cell line OECM-1. Format: cell-based. How it is done: (§1) Human non-small cell lung cancer line A549, PC9, and H1975 (Osimertinib sensitive; Gefitinib toleran; belonged to T790M mutations), oral squamous cell carcinoma cell line OECM-1 were cultured in RPMI medium supplemented with 10% fetal bovine serum (FBS) and antibiotic. Human oral squamous cell carcinoma cell line C9 and human diploid fibroblast (HFW) were cultured in DMEM medium supplemented with 10% fetal bovine serum (FBS) and antibiotic. Cells were cultured in a humidified incubator containing 5% CO2 at 37° C.
(§2) The cytotoxicity of cancer cells via administrating the peptides were measured by the MTT assay. All cancer cell lines were seeded in a 96-well plate at a density of 5×10^4 cells per well and incubated for 24 hr. After the medium was removed, using the anti-cancer peptides ranged from 50 μM to 0.78 μM for treatment, diluted in the growth medium, and administered 24 hr. The media was then removed, determined cell viability by incubated for 3 hours at 37 C with the addition of 100 μL Thiazolyl Blue Tetrazolium Bromide (MTT 0.5 mg/ml in PBS; M2128, Sigma-Aldrich) diluted by ratio 1:9 in the growth medium. Next, the medium with MTT solution was removed, added 100 μl Dimethyl Sulfoxide (DMSO, D4540, Sigma-Aldrich) for dissolving the formazan crystal. Cell survival rate was calculated by measuring the absorbance at 570 nm using a microplate reader (Sunrise TM, TECAN, Switzerland). Medium without peptide and mixed with H2O2 represented positive and negative control, respectively. The experiments were repeated at least three times. Cell Viability percentage was calculated as follows: […]
A general note: Formazan colour is commonly taken as a measure of viable cells.

The subject of data set [2] is Human non-small cell lung cancer line PC9. Briefly: MTT assay cytotoxicity, PC9. Type of data set: cell-based. As to conditions: 24 hr treatment, read-out: anticancer activity Human non-small cell lung cancer line PC9. As for the experimental part:
as §1, §2

The test system of data set [3] is Human non-small cell lung cancer line A549. Type of data set: cell-based. As to conditions: for IC50: 24 h. As for the experimental part: as §1, §2
For data set [4], the system named is human lung cancer cell/cell line and oral squamous cell carcinoma cell/cell line. As to the kind of experiment: MTT assay, overall anticancer spectrum. Format: cell-based. As to conditions: for efficiency to the human lung cancer cell line: human lung cancer cell lines, FIG. 1A-1C. How it is done:
as §1, §2

Data set [5] can be described thus: MTT assay cell cytotoxicity, normal cell HFW. The following applies: human, human diploid fibroblast (HFW) cells, 24 hr treatment. Type of data set: cell-based. As for the experimental part: as §1, §2
Data set [6] deals with Human oral squamous cell carcinoma cell line C9. As to the kind of experiment: MTT assay cytotoxicity, C9. Format: cell-based. As to conditions: for activity against oral squamous cell carcinoma cell line C9 (in words): FIG. 1E; for IC50: MTT, 24 hr treatment, read-out: anticancer activity oral squamous cell carcinoma cell line C9. How it is done: as §1, §2
Data set [7] deals with Human non-small cell lung cancer line H1975. Briefly: MTT assay cytotoxicity, H1975. Format: cell-based. As to conditions: 24 hr treatment, read-out: anticancer activity Human non-small cell lung cancer line H1975. How it is done:
as §1, §2

Data set [8] concerns Human non-small cell lung cancer cell A549. Briefly: ROS release (DCFDA assay). Type of data set: cell-based. The following applies: 4×IC50 (6.452 μM); 120 minutes. How it is done:
FIG. 6 depict that release of ROS from cancer cells were administrated with the peptide. Human non-small cell lung cancer cell A549 administrated with 6.452 μM (4×IC50) of K1R12-AGP-RW for 120 min. The cells of control group were treated with RPMI-1640 without phenol red. Data are presented as means ±SEM, **p<0.05, versus the control group. Data of FIG. 6 were analyzed by Student's t-test.
The 2′,7′-dichlorofluorescin diacetate (DCFDA) intracellular ROS detection assay kit from Abcam (UK, ab113851) was used for measuring ROS release. Cells were seeded in a 96 well black clear bottom plate with 4×10^4 per well, culture 24 hours. Remove medium and washed once in pre-warm 1× PBS with 100 μl per well. Furthermore, cells were treated with 25 μM DCFDA in 1× buffer solution incubated for 120 minutes. Washed again with a buffer solution of 100 μL/well, before adding the 4×IC50 K1R12-AGP-RW dissolved in RPMI without phenol red, and incubated 60,120 and 240 minutes. Cells incubated with RPMI without phenol red were used as a negative control, and the positive control was tertbutyl hydroperoxide (TBHP). Using a fluorescence plate reader (VICTOR3, PerkinElmer, USA) determined at an excitation wavelength of 485 nm and an emission wavelength of 535 nm.

Data set [9] shares this test system. Briefly: ATP release (ENLITEN ATP assay kit, luciferin-luciferase). Format: cell-based. As to conditions: 4×IC50 (6.452 μM). As for the experimental part:
FIG. 4 depict that Detection ATP release into supernatant was detect after adminstrated with K1R12-AGP-RW. Human non-small cell lung cancer cell A549 administrated with 6.452 μM (4×IC50) of K1R12-AGP-RW for different time period (30 min, 60 min, 90 min, 120 min). Data are presented as means ±SEM, ***p<0.005, **p<0.01, versus the control group. Data of FIG. 4 were analyzed using the one-way ANOVA and multiple comparison test.
The ENLITEN ATP assay kit (Promega, Madison, WI, FF2000) was used for the detection of ATP release levels. Above all seeds, cancer cells in 96 well with 1×10^5 cell per well, incubated 24 hours. On day 2, replace the medium with the fresh medium containing 4×IC50 K1R12-AGP-RW incubated at different time points (30 min, 60 min, 90 min, 120 min). The supernatant was college and centrifuged 500 xg for 10 minutes to remove debris. Add reconstituted rL/L reagent with the sample and detection immediately, expressed as relative light units (RLU). Serially diluted ATP standard to calculating ATP concentrations generates a regression curve. All reagents in this kit must be returned to room temperature before use.

The test system is the same in data set [10]. Briefly: Extracellular cytochrome c release (ELISA). As to conditions: 4×IC50 (6.452 μM). Format: cell-based. How it is done:
FIG. 5 depict that release of mitochondria DAMPs Cytochrome c was detected by Elisa kit. Human non-small cell lung cancer cell A549 administrated with 6.452 μM (4×IC50) of K1R12-AGP-RW for different time period (30 min, 60 min, 90 min, 120 min, […]). Data are presented as means ±SEM, ***p<0.005, **p<0.01, versus the control group.
The ELISA kit for detection of cytochrome c was obtained from the R&D System (Minneapolis, MN, USA). Before the experiment, prepare a buffer solution or reagent from the kit. Seed cancer cells 1×10^5 in 96 well incubated 24 hours. After 24 hours, substitute with 4×IC50 K1R12-AGP-RW dilutions in medium, and incubate designated time points (30 min, 60 min, 90 min, 120 min). Following the supernatant was centrifuged at 16000 xg for 10 minutes. Add 50 μL supernatant and 75 μL of cytochrome c conjugate to each well. Then, add 50 μL of standard, control, or sample per well. Mix by tapping the plate frame for 1 minute. Cover with the adhesive strip provided. Incubate for 2 hours at room temperature. A plate layout is provided to record standards and samples assayed. Then use the wash buffer washed 5 times with 400 μL. The last wash removes any remaining Wash Buffer by decanting. […] Detection the cytochrome c at absorbance 450 nm using a microplate reader (Sunrise TM, TECAN, Switzerland).

Data set [11] shares this test system. Briefly: HMGB1 secretion by western blot. Type of data set: cell-based. The following applies: 4×IC50 (6.452 μM). How it is done:
FIG. 3 depict that the release level of HMGB1 was analyzed by Western Blot. Human non-small cell lung cancer cell A549 administrated with 6.452 μM (4×IC50) of K1R12-AGP-RW for different time period (60 min, 120 min, 240 min), the HMGB1 release form lysate (L) to the supernatant (S). A549 treated with medium without serum as control group.
In one embodiment, cancer cells were seeded with 5×10^5 cells/well in 6-cm polystyrene in complete medium and allowed to adhere 24 hr. Cells were treated with K1R12-AGP-IR, K1R12-AGP-RW, K1R12-AGP-RI at 4×IC50 dilution in medium without serum and incubated at 37° C. for different time points (60 min,120 min,240 min). RPMI medium without peptide treated for 24 hr which was used as a negative control. Supernatants (S) were collected and centrifuged at 1,500 rcf for 5 minutes. Cell lysates (L) use 500 μL Trypsin-EDTA harvested after centrifuged at 750 g for 5 minutes and washing lysate twice with PBS. And addition 150 μL RIPA and protease inhibitor blended buffer, then centrifugation same condition with supernatant(S). Sonication with 5 cycle number, time on or off 30 sec, and centrifugation for 10 minutes, 1400 g at 4° C., thereafter lysed using a 6× Sample buffer, 0.1M DTT (Sigma), and water. Protein concentrations of cell extracts were determined by Bradford reagent. Both supernatants and lysate were boiled in 80° C. 10 minutes and resolved by 12% sodium dodecyl sulfate-polyacrylamide gel electrophoresis (SDS-PAGE), and then electro transferred to a polyvinylidene difluoride (PVDF) membrane (Millipore). The membrane was blocked in 5% skimmed milk and incubated with the HMGB1 antibody (rabbit, polyclonal, Abcam ab 18256). The membrane was then rinsed several times with TB ST, incubated with horseradish peroxidase (HRP)-conjugated secondary antibody (Abcam ab6721). The signals were visualized by enhanced chemiluminescence (ECL) and recorded by a detected system (Image Quant LAS 4000mini).
A general note: In western blotting, separated proteins are transferred to a membrane and probed.

A further data set concerns A549 cell. Briefly: Killing kinetics (MTT time course). The following applies: 4×IC50 (6.452 μM) vs 2×IC50 (3.226 μM), within 240 minutes. Format: cell-based, human. As for the experimental part: To evaluate the cytotoxic activity and time course against the A549 cell, two different concentrations of K1R12-AGP-RW 2×IC50 (3.226 μM), 4×IC50 (6.452 μM) were used. Cells were seeded as described as MTT assay, after 24 hours culture, cell were incubated with 2×IC50 and 4×IC50 peptide solution for 60 minutes, 120 minutes, 180 minutes, 240 minutes. Further incubated in 10% MTT solution for an additional 4 hours. Remove MTT solution and Dimethyl Sulfoxide (DMSO, D4540, Sigma-Aldrich) was added to formazan crystal solubilization. Using a microplate reader (Sunrise TM, TECAN, Switzerland) detecting the absorbance at 570 nm. The experiments were repeated three times independently.

Consider “Ac-KRIVQRIKDFLRAGPIKDFLR-NH2 [SEQ ID NO: 5, Ac-KRIVQRIKDFLR-AGP-IKDFLR-NH2]”, for which the IC50 in data set [1] came to 11.5 µM; in [2], 10.5 µM; in data set [3], 6.26 µM; in data set [6], 25.3 µM; in data set [7] it was 11.9 µM. In data set [4] (human lung cancer and oral squamous cell carcinoma cell lines, MTT), the anticancer activity spectrum entry is listed as “broad-spectrum anticancer activity”. Also, the “efficiency to the human lung cancer cell line” value in data set [4] is reported as “good efficiency”. This substance also yielded an IC50 at 24 h in data set [5] of 13.5 µM. Further, the “activity against oral squamous cell carcinoma cell line C9 (in words)” value in [6] is on record as “weak”.

Regarding “Ac-KRIVQRIKDFLRAGPRRLVRI-NH2 [SEQ ID NO: 7, Ac-KRIVQRIKDFLR-AGP-RRLVRI-NH2]”, the IC50 was determined as 11.2 µM in data set [1]; 16.8 µM in data set [2]; 3.86 µM in [3]; 30.4 µM in data set [6]; 13.7 µM in data set [7]. Moreover, the “efficiency to the human lung cancer cell line” value in data set [4] is recorded as “good efficiency”. This substance also came in with an IC50 at 24 h in [5] of 10.4 µM. Besides, in [6], the “activity against oral squamous cell carcinoma cell line C9 (in words)” value is given as “weak”.

As for “Ac-KRIVQRIKDFLRAGPRRWWRW-NH2 [SEQ ID NO: 6, Ac-KRIVQRIKDFLR-AGP-RRWWRW-NH2]”, the IC50 worked out at 4.56 µM in data set [1]; 5.42 µM in [2]; 1.61 µM in data set [3]; 4.41 µM in data set [6]; 10.9 µM in data set [7]. In addition, the “ROS release versus untreated cell” value in data set [8] is given as “significant increase”. Besides, in data set [3] (MTT), the “inhibition of A549 compared with the other cancer cells” value is given as “more effective”. Besides, the ATP secretion entry is “reduced” in data set [9] (after 30 minutes, with time increased) and “higher level” in data set [9] (within 30 minutes). Besides, the cytochrome c release entry in data set [10] (120 minutes) is “release at a certain level and keep stabilize”. For the same substance, the “cytochrome c release versus untreated cell” value in data set [10] (240 minutes) was “significant increase”. The “HMGB1 in cell lysate (L)” value in [11] (60, 120, 240 minutes, time-dependent) is recorded as “reduce”. Moreover, the “HMGB1 in supernatant (S)” value in data set [11] (after 120 minutes) is recorded as “slight increase”; in data set [11] (after 240 minutes), “complete release into the supernatant(S)”. Moreover, the IC50 at 24 h in data set [5] was determined as 11.1 µM. In the data set on A549 cell, the “killing kinetics, 4×IC50 versus 2×IC50” value was “more rapid kill cancer cells”.
